One experiment relates to HCT116^MTAP Deletion cells. Kind of experiment: Anti-proliferation assay on cells (Cell-Titer Glo, 10 days). Format: cell-based. As to conditions: 240 h, HCT116^MTAP Deletion cells, 10 days incubation, CTG readout; read-out: HCT116^MTAP Deletion GI50. The procedure: HCT116^MTAP Deletion cells were from Pharmaron (China); HCT116 cells were from ATCC; McCoy's 5A medium was purchased from Invitrogen (USA); penicillin-streptomycin and fetal bovine serum were purchased from Gibco (USA); a 384-well plate was purchased from PerkinElmer (USA); and Cell-Titer Glo reagent was purchased from Promega (USA).
Compound dissolution: All the compounds were dissolved in dimethyl sulfoxide (DMSO) and then stored. The compounds were stored at room temperature in a dry condition for 3 months for short term storage or at -20 °C for long term storage.
Cell culture and passaging
The cells were cultured strictly in accordance with ATCC requirements. The cell culture medium (McCoy's 5A medium + 10% fetal bovine serum + 1% penicillin + streptomycin) was transferred to a 15 mL centrifuge tube and centrifuged at 1000 rpm for 5 min. The supernatant was removed. The cells were resuspended with complete culture medium, inoculated into a culture dish at the required density, and cultured in an incubator at 37 °C, 95% humid air, and 5% carbon dioxide. The culture medium was replenished or the cells were passaged every 2-3 days depending on the cell growth condition.
Cell proliferation activity assay
When the confluency of cells in the culture dish reached about 90%, the cells were washed twice with PBS, and then treated with trypsin to become single cells. The cells were counted, and 40µl of the cells was inoculated into each well of a 384-well plate (50 cells/well). The plate was equilibrated at 37 °C and 5% carbon dioxide for 10 to 15 minutes. The compounds were injected into the 384-well plate using Echo550, and positive control and negative control (0.1% DMSO) were set up. Each compound was subjected to a 3-fold dilution, resulting in 10 concentration gradients, in duplicate, and the content of DMSO was 0.1%. The 384-well plate was incubated in a cell culture incubator for 10 days.
Then, 40 µl of cell proliferation assay reagent (CTG) was added to the 384-well plate, and the plate was shaken to mix well. Then, the 384-well plate was incubated at 37 °C and 5% carbon dioxide in the dark for 30 minutes. The data were read using the Envision multifunctional microplate reader. […] According to the different drug concentrations and their corresponding inhibition rates, the GI50 curve was drawn using GraphPad 8.0 software. The data were analyzed, and the final IC50 value was obtained.
As for `CN(C(=O)C(=O)Nc1cnc(N)c2c1COC2)C1CCOCc2cc(C(F)(F)F)ccc21` (stereo not drawn) [Example 49], the GI50 was in the range of 100 to 1000 nM.

As to `Cn1ncc2c(NC(=O)C(=O)N(Cc3ccc(C(F)(F)F)cn3)Cc3ccnc4[nH]ccc34)cnc(N)c21` [Example 50], the GI50 is below 10 nM.

As to `C[C@H](C1CC1)N(Cc1ccc(C(F)(F)F)cn1)C(=O)C(=O)Nc1cnc(N)c2c1cnn2C` [Example 51], the GI50 is 10 to 100 nM.

In the case of `Cc1cc(NC(=O)C(=O)N(Cc2ccc(C(F)(F)F)cn2)CC23CC(C2)C3)cnc1N` [Example 53], the GI50 is 100 to 1000 nM.

In the case of `CCC(C)N(Cc1ccc(C(F)(F)F)cn1)C(=O)C(=O)Nc1cnc(N)c2c1COC2` (stereo not drawn) [Example 54], the GI50 is 10 to 100 nM.

As to `Cc1cc(NC(=O)C(=O)N(Cc2ccc(C(F)(F)F)nn2)[C@H](C)c2ncccn2)cnc1N` [Example 55], the GI50 was in the range of 100 to 1000 nM.

`CN(C(=O)C(=O)Nc1cnc(N)c2c1COC2)C1COCc2cc(C(F)(F)F)ccc21` (stereo not drawn) [Example 56]: the GI50 fell in the range of 10 to 100 nM.

On to `CCC(C)N(Cc1ccc(C(F)(F)F)nc1)C(=O)C(=O)Nc1cnc(N)c(C)c1` (stereo not drawn) [Example 57], for which the GI50 lay within 100 to 1000 nM.

For `CCC(C)N(Cc1cnc(C(F)(F)F)nc1)C(=O)C(=O)Nc1cnc(N)c(C)c1` (stereo not drawn) [Example 58], the GI50 was above 10000 nM.

Take `CCC(C)N(Cc1ccc(C(F)(F)F)cc1)C(=O)C(=O)Nc1cnc(N)c(C)c1` (stereo not drawn) [Example 59]: the GI50 fell in the range of 10 to 100 nM.

As to `Cc1cc(NC(=O)C(=O)N(Cc2ccc(C(F)(F)F)cn2)C2CCCc3cn[nH]c32)cnc1N` (stereo not drawn) [Example 60], the GI50 fell in the range of 100 to 1000 nM.

Consider `CCC(C)N(Cc1ccc(Cl)cn1)C(=O)C(=O)Nc1cnc(N)c(C)c1` (stereo not drawn) [Example 61], for which the GI50 was in the range of 100 to 1000 nM.

Consider `CCOc1ccc(CN(C(=O)C(=O)Nc2cnc(N)c(C)c2)C(C)CC)nc1` (stereo not drawn) [Example 62], for which the GI50 fell in the range of 10 to 100 nM.

`Nc1ncc(NC(=O)C(=O)N(Cc2ccc(C(F)(F)F)cn2)Cc2ccnc3[nH]ccc23)c2c1COC2` [Example 64]: the GI50 was 10 to 100 nM.

As to `CCC(C)N(Cc1ccc(C(F)(F)F)nn1)C(=O)C(=O)Nc1cnc(N)c(C)c1` (stereo not drawn) [Example 65], the GI50 lay within 100 to 1000 nM.

On to `CCC(C)N(Cc1ncc(C)s1)C(=O)C(=O)Nc1cnc(N)c(C)c1` (stereo not drawn) [Example 66], for which the GI50 lay in the range of 1000 to 10000 nM.

On to `CN(Cc1ccc2sc(C3CCOCC3)nc2c1)C(=O)C(=O)Nc1cnc(N)c2c1COC2` [Example 67], for which the GI50 fell in the range of 1000 to 10000 nM.

Turning to `CC(c1cscn1)N(Cc1ccc(C(F)(F)F)cn1)C(=O)C(=O)Nc1cnc(N)c2c1COC2` (stereo not drawn) [Example 68], the GI50 lay within 10 to 100 nM.

In the case of `CCC(C)N(Cc1ccc(S(F)(F)(F)(F)F)cc1)C(=O)C(=O)Nc1cnc(N)c(C)c1` (stereo not drawn) [Example 69], the GI50 was in the range of 100 to 1000 nM.

Take `Cc1cc(NC(=O)C(=O)N(Cc2ccc(C(F)(F)F)cn2)CC2CC(F)(F)C2)cnc1N` [Example 70]: the GI50 fell in the range of 100 to 1000 nM.

As for `CCC(C)N(Cc1ccc(C2CC2)cn1)C(=O)C(=O)Nc1cnc(N)c(C)c1` (stereo not drawn) [Example 71], the GI50 is 10 to 100 nM.

On to `CCC(C)N(Cc1ccn(C)n1)C(=O)C(=O)Nc1cnc(N)c(C)c1` (stereo not drawn) [Example 72], for which the GI50 lay in the range of 1000 to 10000 nM.

In the case of `CCC(C)N(C(=O)C(=O)Nc1cnc(N)c(C)c1)C(C)c1ccc(C(F)(F)F)cn1` (stereo not drawn) [Example 74], the GI50 was in the range of 1000 to 10000 nM.

`CCC(C)N(Cc1cc(C)n(C)n1)C(=O)C(=O)Nc1cnc(N)c(C)c1` (stereo not drawn) [Example 75]: the GI50 fell in the range of 100 to 1000 nM.

With `CCC(C)N(Cc1nc(C)cs1)C(=O)C(=O)Nc1cnc(N)c(C)c1` (stereo not drawn) [Example 76], the GI50 was 100 to 1000 nM.

For `CCC(C)N(Cc1ccc(C#N)c(Cl)n1)C(=O)C(=O)Nc1cnc(N)c(C)c1` (stereo not drawn) [Example 77], the GI50 fell in the range of 10 to 100 nM.

On to `CCC(C)N(Cc1ccc(C(F)(F)F)cn1)C(=O)C(=O)Nc1cnc(N)c(C2CC2)c1` (stereo not drawn) [Example 78], for which the GI50 was in the range of 100 to 1000 nM.

On to `CC1OCc2c(NC(=O)C(=O)N(Cc3ccc(C(F)(F)F)cn3)CC3CC3)cnc(N)c21` (stereo not drawn) [Example 79], for which the GI50 is 100 to 1000 nM.

`CCC(C)N(Cc1ccc(OC(C)C)cn1)C(=O)C(=O)Nc1cnc(N)c(C)c1` (stereo not drawn) [Example 80]: the GI50 fell in the range of 10 to 100 nM.

In the case of `CC1OCc2c(NC(=O)C(=O)N(Cc3ccc(C(F)(F)F)cn3)Cc3ccnc4[nH]ccc34)cnc(N)c21` (stereo not drawn) [Example 81], the GI50 was below 10 nM.

For `CCC(C)N(Cc1ncc(C(F)(F)F)cn1)C(=O)C(=O)Nc1cnc(N)c(C)c1` (stereo not drawn) [Example 82], the GI50 is 100 to 1000 nM.

`CCC(C)N(Cc1ccc(OC2CC2)cn1)C(=O)C(=O)Nc1cnc(N)c(C)c1` (stereo not drawn) [Example 83]: the GI50 lay within 10 to 100 nM.

For `COC(=O)N1CC=C(c2ccc(CN(C(=O)C(=O)Nc3cnc(N)c(C)c3)[C@H](C)c3ncccn3)nc2)CC1` [Example 84], the GI50 was 10 to 100 nM.

For the compound `CCC(C)N(Cc1ccc(S(C)(=O)=O)cn1)C(=O)C(=O)Nc1cnc(N)c(C)c1` (stereo not drawn) [Example 85], the concentration for 50% growth inhibition (GI50) fell in the range of 100 to 1000 nM.

For the compound `Cc1cc(NC(=O)C(=O)N(Cc2ccc(C(F)(F)F)cn2)C(C)C(C)C)cnc1N` (stereo not drawn) [Example 86], the GI50 lay within 10 to 100 nM.

In the case of `CCC(C)N(Cc1cccc(C(F)(F)F)n1)C(=O)C(=O)Nc1cnc(N)c(C)c1` (stereo not drawn) [Example 87], the GI50 is 100 to 1000 nM.

As for `CCC(C)N(Cc1ccc(OC(F)(F)F)cn1)C(=O)C(=O)Nc1cnc(N)c(C)c1` (stereo not drawn) [Example 92], the GI50 lay within 10 to 100 nM.

For the compound `CC(C)N(C(=O)C(=O)Nc1cnc(N)c2c1cnn2C)C1COCc2cc(C(F)(F)F)ccc21` (stereo not drawn) [Example 96], the GI50 is 10 to 100 nM.

For `CCCN(C(=O)C(=O)Nc1cnc(N)c2c1cnn2C)C1COCc2cc(C(F)(F)F)ccc21` (stereo not drawn) [Example 97], the concentration for 50% growth inhibition (GI50) was below 10 nM.

For `CCN(C(=O)C(=O)Nc1cnc(N)c2c1cnn2C)C1COCc2cc(C(F)(F)F)ccc21` (stereo not drawn) [Example 101], the GI50 is below 10 nM.

`Cn1ncc2c(NC(=O)C(=O)N(CC3CC3)C3COCc4cc(C(F)(F)F)ccc43)cnc(N)c21` (stereo not drawn) [Example 102]: the GI50 is below 10 nM.

In the case of `CC(C)CN(C(=O)C(=O)Nc1cnc(N)c2c1cnn2C)C1COCc2cc(C(F)(F)F)ccc21` (stereo not drawn) [Example 103], the GI50 is below 10 nM.

The same experiment, now with this note: HCT116^MTAP Deletion cells, 10 days incubation, CTG readout; read-out: HCT116^MTAP Deletion GI50.
Consider `Cc1cc(NC(=O)C(=O)N(Cc2ccc(N3CCC(F)(F)C3)cn2)[C@H](C)c2ncccn2)cnc1N` [Example 29], for which the GI50 was in the range of 100 to 1000 nM.

Regarding `C[C@H](c1ncccn1)N(Cc1ccc(C(F)(F)F)cn1)C(=O)C(=O)Nc1cnc(N)c2c1cnn2C` [Example 30], the GI50 fell in the range of 10 to 100 nM.

With `C[C@H](c1ncccn1)N(Cc1ccc(C(F)(F)F)cn1)C(=O)C(=O)Nc1cnc(N)c2c1CCCC2` [Example 31], the GI50 fell in the range of 100 to 1000 nM.

For `C[C@H](c1ncccn1)N(Cc1ccc(C(F)(F)F)cn1)C(=O)C(=O)Nc1cnc(N)c2ccncc12` [Example 32], the GI50 was 100 to 1000 nM.

Consider `CCOc1ccc(CN(C(=O)C(=O)Nc2cnc(N)c(C)c2)[C@H](C)c2ncccn2)nn1` [Example 35], for which the GI50 fell in the range of 10 to 100 nM.

In the case of `Cc1cc(NC(=O)C(=O)N(Cc2ccc(C(F)(F)F)cn2)[C@H](C)C2CC2)cnc1N` [Example 36], the GI50 was in the range of 10 to 100 nM.

`C[C@H](c1ncccn1)N(Cc1ccc(C(F)(F)F)cn1)C(=O)C(=O)Nc1cnc(N)c2cncn12` [Example 38]: the GI50 was above 10000 nM.

For the compound `C[C@H](C1CC1)N(Cc1ccc(C(F)(F)F)cn1)C(=O)C(=O)Nc1cnc(N)c2c1COC2` [Example 39], the GI50 fell in the range of 100 to 1000 nM.

For the compound `Nc1ncc(NC(=O)C(=O)N(Cc2ccc(C(F)(F)F)cn2)CC2CC2)c2c1COC2` [Example 40], the GI50 was in the range of 100 to 1000 nM.

Turning to `Nc1ncc(NC(=O)C(=O)N(Cc2ccc(C(F)(F)F)cn2)CC2CCC2)c2c1COC2` [Example 41], the GI50 lay within 100 to 1000 nM.

Consider `Cc1cc(NC(=O)C(=O)N(Cc2ccc(C3=CCOCC3)nn2)[C@H](C)c2ncccn2)cnc1N` [Example 42], for which the GI50 lay within 100 to 1000 nM.

Consider `Cn1ncc2c(NC(=O)C(=O)N(Cc3ccc(C(F)(F)F)cn3)CC3CC3)cnc(N)c21` [Example 43], for which the GI50 was below 10 nM.

For the compound `CC(c1cscn1)N(Cc1ccc(C(F)(F)F)cn1)C(=O)C(=O)Nc1cnc(N)c2c1cnn2C` (stereo not drawn) [Example 44], the concentration for 50% growth inhibition (GI50) is 10 to 100 nM.

Turning to `CCC(C)N(Cc1ccc(C(F)(F)F)cn1)C(=O)C(=O)Nc1cnc(N)c2c1cnn2C` (stereo not drawn) [Example 46-P2], the GI50 was in the range of 10 to 100 nM.

As for `CN(C(=O)C(=O)Nc1cnc(N)c2c1cnn2C)C1COCc2cc(C(F)(F)F)ccc21` (stereo not drawn) [Example 48], the GI50 is below 10 nM.

For the compound `CCC(C)N(Cc1ccc(C(F)(F)F)cn1)C(=O)C(=O)Nc1cnc(N)c2c1cnn2C` (stereo not drawn) [Example 52], the GI50 is below 10 nM.

Regarding `CCC(C)N(Cc1ccc(OCC(F)(F)F)nn1)C(=O)C(=O)Nc1cnc(N)c(C)c1` (stereo not drawn) [Example 63], the GI50 lay within 100 to 1000 nM.

As for `CCC(C)N(Cc1cnn(C)c1)C(=O)C(=O)Nc1cnc(N)c(C)c1` (stereo not drawn) [Example 73], the GI50 was above 10000 nM.

Broadly, the GI50 is the concentration that inhibits growth by half.

Values taken from patent EP4563571A1, “PRMT5 INHIBITORS” (Beijing Earthwise Technology Co., Ltd., priority 2022, dated 2024).
